# ChEMBL document CHEMBL1148875, “Benzopyrans as selective estrogen receptor beta agonists (SERBAs). Part 2: structure-activity relationship studies on the benzopyran scaffold” (Bioorg Med Chem Lett, 2007)
# pKi: −log10 of the molar value.
# Legend:
# Estrogen receptor beta = Estrogen receptor beta (Homo sapiens, UniProt Q92731); assay: Binding affinity to human ERbeta
# Estrogen receptor = biological target: T1, Estrogen receptor (Homo sapiens, UniProt P03372); assay: Binding affinity to human ERalpha
# T1 sequence (P03372 whole entry): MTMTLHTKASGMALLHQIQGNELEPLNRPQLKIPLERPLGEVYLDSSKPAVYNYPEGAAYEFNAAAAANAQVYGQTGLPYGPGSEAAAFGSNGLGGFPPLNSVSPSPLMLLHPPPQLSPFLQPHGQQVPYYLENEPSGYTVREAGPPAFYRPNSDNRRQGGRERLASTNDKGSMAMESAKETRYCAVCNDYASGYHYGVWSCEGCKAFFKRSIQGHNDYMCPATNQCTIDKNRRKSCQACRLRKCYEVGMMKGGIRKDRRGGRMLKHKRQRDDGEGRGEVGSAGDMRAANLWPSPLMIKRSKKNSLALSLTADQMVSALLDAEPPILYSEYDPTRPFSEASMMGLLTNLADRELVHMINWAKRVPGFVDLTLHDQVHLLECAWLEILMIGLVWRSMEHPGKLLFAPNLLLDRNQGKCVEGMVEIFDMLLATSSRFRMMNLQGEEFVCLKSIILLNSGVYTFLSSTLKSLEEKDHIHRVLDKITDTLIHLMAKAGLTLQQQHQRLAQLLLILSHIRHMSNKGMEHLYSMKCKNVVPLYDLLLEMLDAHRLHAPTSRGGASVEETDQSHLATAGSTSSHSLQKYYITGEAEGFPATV
# Chain of Estrogen receptor beta (Q92731 whole entry): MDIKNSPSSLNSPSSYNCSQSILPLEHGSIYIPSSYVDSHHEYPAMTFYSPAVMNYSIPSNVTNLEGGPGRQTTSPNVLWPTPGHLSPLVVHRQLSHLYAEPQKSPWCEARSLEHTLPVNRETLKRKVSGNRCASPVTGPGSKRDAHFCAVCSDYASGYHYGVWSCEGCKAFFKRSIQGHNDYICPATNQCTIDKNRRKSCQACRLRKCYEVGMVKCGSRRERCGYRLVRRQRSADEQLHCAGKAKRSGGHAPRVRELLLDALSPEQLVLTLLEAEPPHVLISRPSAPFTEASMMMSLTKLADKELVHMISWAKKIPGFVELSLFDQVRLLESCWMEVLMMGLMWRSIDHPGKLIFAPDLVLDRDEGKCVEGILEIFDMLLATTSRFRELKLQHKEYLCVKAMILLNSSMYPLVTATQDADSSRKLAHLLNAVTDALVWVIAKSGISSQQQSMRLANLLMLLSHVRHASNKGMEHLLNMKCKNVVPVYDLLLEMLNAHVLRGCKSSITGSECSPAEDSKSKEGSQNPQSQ
smiles,measurement,setting,value
Oc1ccc([C@H]2Oc3ccc(O)cc3[C@H]3CCCC[C@H]32)cc1,pKi,Estrogen receptor beta,9.20
same,pKi,Estrogen receptor,8.54
Oc1ccc([C@H]2Oc3ccc(O)cc3[C@H]3CCCCC[C@H]32)cc1,pKi,Estrogen receptor beta,9.06
same,pKi,Estrogen receptor,8.21
Oc1ccc([C@H]2Oc3cccc(O)c3[C@H]3CCC[C@H]32)cc1,pKi,Estrogen receptor beta,9.18
same,pKi,Estrogen receptor,9.46
Oc1ccc([C@@H]2CCc3cc(O)ccc3O2)cc1,pKi,Estrogen receptor beta,7.68
Oc1cccc([C@H]2Oc3ccc(O)cc3[C@H]3CCC[C@H]32)c1,pKi,Estrogen receptor,7.19
Oc1ccc([C@H]2Oc3cc(O)ccc3[C@H]3CCC[C@H]32)cc1,pKi,Estrogen receptor beta,7.72
same,pKi,Estrogen receptor,7.39
Oc1ccc2c(c1)[C@H]1CCC[C@H]1[C@@H](c1ccccc1)O2,pKi,Estrogen receptor,6.57
Oc1ccc([C@H]2Oc3ccccc3[C@H]3CCC[C@H]32)cc1,pKi,Estrogen receptor beta,7.66
same,pKi,Estrogen receptor,7.40
